In paper PMC3669315, “Dissociations in the Effects of β2-Adrenergic Receptor Agonists on cAMP Formation and Superoxide Production in Human Neutrophils: Support for the Concept of Functional Selectivity” (PLoS ONE, 2013):
Where two headings read alike, the source gives them in different places.

How the values were obtained:
[1] = biological target: T1, β2-adrenergic receptor (β2AR) on human neutrophils (Homo sapiens, UniProt P07550); experiment: cAMP accumulation, HPLC-MS/MS; type: cell-based; conditions: intact neutrophils, […] IBMX, […] °C, read-out: cAMP assay (β2AR on neutrophil granulocytes) / pEC50 ± S.E.M. (EC50 in μM) (converted)
T1 construct: gene ADRB2; native full-length receptor in intact neutrophils isolated from venous blood or buffy coat of healthy volunteers

[2] = biological target: T1, β2-adrenergic receptor (β2AR) on human neutrophils; experiment: inhibition of fMLP-stimulated superoxide production, ferricytochrome c reduction; type: cell-based; conditions: agonist potency, downstream functional read-out, intact neutrophils, […] fMLP, cytochalasin B, read-out: O2 ^•- assay (β2AR on neutrophil granulocytes) / pIC50 ± S.E.M. (IC50 in μM) (converted)
From the text: inhibition of fMLP-stimulated superoxide production, ferricytochrome c reduction on β2-adrenergic receptor (β2AR) on human neutrophils

T1 sequence (P07550 whole entry): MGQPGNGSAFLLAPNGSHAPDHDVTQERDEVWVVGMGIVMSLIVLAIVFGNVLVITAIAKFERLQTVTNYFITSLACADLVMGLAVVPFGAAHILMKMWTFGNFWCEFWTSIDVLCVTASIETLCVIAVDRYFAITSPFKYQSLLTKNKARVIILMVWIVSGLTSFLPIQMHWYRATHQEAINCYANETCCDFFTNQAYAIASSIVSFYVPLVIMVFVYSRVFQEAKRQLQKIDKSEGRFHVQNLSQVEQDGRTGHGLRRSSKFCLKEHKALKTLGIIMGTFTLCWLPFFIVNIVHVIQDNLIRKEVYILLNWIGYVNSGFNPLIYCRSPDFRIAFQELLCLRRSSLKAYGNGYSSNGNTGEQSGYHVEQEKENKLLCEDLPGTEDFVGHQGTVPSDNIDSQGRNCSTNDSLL

Row | SMILES | EC50 ([1]; partial agonist) [µM] | EC50 ([1]; agonist mode, table prints pEC50 <[…] as ( […]), text: no agonistic activity up to […]) [µM] | IC50 [2] [µM]
1 | CC(CCc1ccc(O)cc1)NCCc1ccc(O)c(O)c1 (racemic) [DOB, (±)-dobutamine] | 13.8 |  | 
2 | CC(C)NCC(O)c1ccc(Cl)c(Cl)c1 (racemic) [DCI, (±)-dichlorisoproterenol] |  | > 100 | 39.8
